Data on 1 molecule can be found in patent US9642839B2, “Substance having tyrosine kinase inhibitory activity and preparation method and use thereof” (Institute of Radiation Medicine, China Academy of Military …, priority 2013, dated 2017).

One assay relates to K562 cells. The experiment in a line: In vitro antitumor activity, MTS cell proliferation. The settings on record: Homo sapiens, K562, leukemia, 72 hours. In kind it is cell-based. The method, then: (§1) Method: 14 cell lines (MKN-45 cells, MHCC97-L cells, MHCC97-H cells, HLE cells, HepG2 cells, 7721 cells, L02 cells, A375 cells, H460 cells, A549 cells, SK-N-SH cells, MCF-7 cells, K562 cells, and Ba/F3-Tpr-Met cells (pre-B cells which are malignantly transformed by the c-Met constitutive active mutant Tpr-Met) were seeded into 96-well plate at 1×10^4 cells/well, and each well was added with 150 μl DMEM medium (purchased from Invitrogen) containing 10% fetal bovine serum (purchased from Hyclone). When cell adherent was observed, different concentrations of 2-indolone derivatives (concentrations at 0.1-10 μM) were added, in addition to the negative control (vehicle control group) and blank control (medium group). After culture at 37° C., 5% CO2 for 72 hours, MTS reagent (Promega Corporation) were added for further culture for 2-4 h.

The subject of a further assay is MCF-7 cells. The assay is described as above. Type of assay: cell-based. The settings on record: Homo sapiens, MCF7, MCF-7, breast cancer, 72 hours. The method, then:
as §1

Another assay has as its system Ba/F3-Tpr-Met cells. Described as above. The settings on record: pre-B cell, 72 hours. In kind it is cell-based. The method, then: as §1
For another assay, the system named is SK-N-SH cells. The description is as above. Type of assay: cell-based. The settings on record: Homo sapiens, neuroblastoma, 72 hours. The method, then: as §1
The next assay deals with MHCC97-L cells. The assay is described as above. Type of assay: cell-based. Particulars: MHCC97L, hepatocellular cancer, 72 hours. The method, then:
as §1

For the next assay, the system named is HLE cells. The description is as above. In kind it is cell-based. Particulars: Homo sapiens, hepatocellular cancer, 72 hours. The method, then: as §1
The test system of the next assay is MKN-45 cells. The assay is described as above. In kind it is cell-based. Particulars: Homo sapiens, MKN-45, gastric cancer, 72 hours. The method, then: as §1
A further assay deals with c-Met. The settings on record: MHCC97-H cells, 2 μM versus 1 μM SU11274. The method, then:
The medium was changed once every 1-2 days. […] The supernatant was discarded, and fresh medium was added for subculture.
SU11274 (purchased from Sigma) is a specific c-Met kinase inhibitor which may block activation of c-Met. […] After incubation with the compounds for 2 h, the cells were harvested and total protein was extracted. Western blot assay was carried out with c-Met phosphorylated and non-phosphorylated antibodies, ERK phosphorylated and non-phosphorylated antibodies, Akt phosphorylated and non-phosphorylated antibodies (all purchased from Cell Signaling), and GAPDH antibody (purchased from Santa Cruz).

Assay [1] deals with protein tyrosine kinase (PTK). The experiment in a line: PTK activity assay with mouse brain tissue extract (ELISA, OD 492 nm). The settings on record: at 400 μM. In kind it is biochemical. The method, then: Tyrosine kinase buffer: 10 mL 1M HEPES (pH 7.5), 0.4 mL 5% BSA/PBS, 0.2 mL 0.1M Na3VO4, and 1 mL 5M NaCl were added to 88.4 mL double distilled water (DDW) (HEPES: Amresco; Na3VO4: Sigma).
Extraction of tissue extract PTK: mouse brain tissue was quickly removed and weighed, followed by addition of five-fold volumes of pre-cooled homogenization buffer for homogenization. After centrifugation at 4° C., 1,000 g for 10 min, nuclei and cell debris were removed. The supernatant S1 was collected and centrifuged at 4° C., 10,000 g for 20 min, and then the supernatant S2 was collected. The precipitate P2, which represents the crude membrane protein fraction, was retained. S2 included cytoplasmic protein, and was used for testing protein tyrosine kinase (PTK) activity. In the detection of the membrane protein fraction, two-fold volumes of lysis buffer was added to P2, and the resultant was placed on ice for 10 min and centrifuged at 4° C., 10,000 g for 10 min. The supernatant S3, which represents the crude membrane protein including soluble membrane protein, was collected for testing PTK activity. Protein content in cytoplasm or membrane protein was detected by using BCA protein concentration kit (purchased from Beyotime Institute of Biotechnology). The tissue extract was stored at −70° C.
Coating of 96-well plate: PTK substrate was dissolved and added in an amount of 100 μl to each well. The plate was covered with its lid, and incubated at 4° C. overnight (10-12 hours). Then it was washed with 200 μl elution buffer once, and dried at 37° C. for 2 h. After that, it was washed with 10 mM PBS once, dried at room temperature, and then stored at 4° C. for further use.
Groups: blank control: 80 μl 1× tyrosine kinase buffer containing ATP+20 μl 1× tyrosine kinase buffer; negative control: 80 μl 1× tyrosine kinase buffer containing ATP+10 μl 1× tyrosine kinase buffer+7 μl tissue extract+3 μl 1× tyrosine kinase buffer; positive control: 80 μl 1× tyrosine kinase buffer containing ATP+10 μl Gefitinib+7 μl tissue extract+3 μl 1× tyrosine kinase buffer (first, the positive drug was allowed to interact with the tyrosine kinase tissue extract at room temperature for 10 min, and meanwhile the tissue extract for the negative control group was also placed at room temperature for 10 min, and then 80 μl 1× tyrosine kinase buffer containing ATP was added to respective groups); vehicle control: 80 μl 1× tyrosine kinase buffer containing ATP+10 μl DMSO+7 μl tissue extract+3 μl 1× tyrosine kinase buffer; drugs to be screened: 80 μl 1× tyrosine kinase buffer containing ATP+10 μl drug to be tested +7 μl tissue extract+3 μl 1× tyrosine kinase buffer.
PTK activity assay: 1× tyrosine kinase buffer was prepared by evenly mixing 1 mL (10×) tyrosine kinase buffer with 9 mL DDW. The tissue extract was diluted with 1× tyrosine kinase buffer appropriately, mixed with it gently and evenly, and placed on ice. ATP stock solution was dissolved by evenly mixing 48 μl ATP stock solution with 1 mL 1× tyrosine kinase buffer, and placed on ice. The microplate reader was added in respective wells with the groups formulated as above, covered with the lid, and incubated at room temperature for 30 min. The microplate reader was washed with 200 μl elution buffer and tapped until the residual buffer was removed, and this procedure was repeated for five times. To each well, 100 μl antibody diluent (antibody elution buffer diluted at a ratio of 1:2000) was added. The reader was covered with the lid, and incubated at room temperature for 30 min. OPD solution was prepared by addition of 4 mg OPD into a mixture of 4.86 mL 0.1 mol/L citric acid solution and 5.14 mL 0.2 mol/L Na2HPO4 solution, followed by addition of 50 μl 30% H2O2 to allow for complete dissolution, and then was protected from light. The antibody solution was removed. The reader was washed with 200 μl elution buffer and tapped until the residual buffer was removed, and this procedure was repeated for five times.
(In general: In an ELISA, binding on a coated surface is turned into a signal by an enzyme label.)

For the next assay, the target named is TrkB (Homo sapiens, UniProt Q16620). As to the kind of experiment: Western blot, BDNF-induced TrkB phosphorylation and signaling pathway in SK-N-SH cells. Type of assay: cell-based. Particulars: 0.05-1.0 μM, 200 ng/ml BDNF. The method, then: The medium was changed once every 1-2 days. […] 500 ng/mL NGF or 200 ng/ml BDNF (if not added, marked as “-”) were added to stimulate the cells for 5 min. After cell lysis, total protein was extracted. Western blot assay was carried out with TrkA phosphorylated and non-phosphorylated (p-TrkA) antibodies, TrkB phosphorylated and non-phosphorylated (p-TrkB) antibodies, ERK phosphorylated and non-phosphorylated (p-ERK) antibodies, Akt phosphorylated and non-phosphorylated (p-Akt) antibodies, and GAPDH antibody.
Chain of TrkB (Q16620 32-822, species assumed): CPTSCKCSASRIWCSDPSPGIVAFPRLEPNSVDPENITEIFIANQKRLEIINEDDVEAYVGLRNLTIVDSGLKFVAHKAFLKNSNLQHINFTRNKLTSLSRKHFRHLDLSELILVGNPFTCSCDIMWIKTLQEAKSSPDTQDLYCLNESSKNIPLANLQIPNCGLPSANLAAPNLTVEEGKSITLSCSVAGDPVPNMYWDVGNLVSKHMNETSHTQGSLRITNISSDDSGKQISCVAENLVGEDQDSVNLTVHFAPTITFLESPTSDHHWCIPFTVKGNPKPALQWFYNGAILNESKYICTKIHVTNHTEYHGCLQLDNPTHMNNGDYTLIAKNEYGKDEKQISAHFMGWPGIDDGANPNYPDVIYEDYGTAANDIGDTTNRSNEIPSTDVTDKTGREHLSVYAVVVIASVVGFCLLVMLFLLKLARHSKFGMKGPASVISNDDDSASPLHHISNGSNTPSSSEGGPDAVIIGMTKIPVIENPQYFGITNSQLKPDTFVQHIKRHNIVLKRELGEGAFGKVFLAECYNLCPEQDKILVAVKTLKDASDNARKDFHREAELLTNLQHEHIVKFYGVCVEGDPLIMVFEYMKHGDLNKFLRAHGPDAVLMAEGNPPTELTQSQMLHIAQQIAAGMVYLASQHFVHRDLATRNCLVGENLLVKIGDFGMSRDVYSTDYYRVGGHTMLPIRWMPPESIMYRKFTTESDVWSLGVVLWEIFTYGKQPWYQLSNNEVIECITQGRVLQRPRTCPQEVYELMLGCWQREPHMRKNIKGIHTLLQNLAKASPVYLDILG

For `Cc1ccccc1NS(=O)(=O)c1ccc2c(c1)/C(=C/c1nc3ccccc3[nH]1)C(=O)N2` [Indo 5, 3-(1H-benzimidazol-2-methylene)-5-(2-methylphenylaminosulfo)-2-indolone], the IC50 (usually the concentration that inhibits the measured activity by half) stood at 2580 nM with K562 cells; 1280 nM with MCF-7 cells; 4790 nM in the assay with Ba/F3-Tpr-Met cells; 1190 nM with SK-N-SH cells; 1210 nM in the assay with MHCC97-L cells; 5230 nM in the assay on HLE cells. For the same molecule, the IC50 in the assay on MKN-45 cells is 1550 nM. Besides, in the assay with c-Met, the “Inhibitory effect on c-Met phosphorylation versus positive control” value was “comparable to the positive control SU11274”. The “Inhibition rate on tyrosine kinase” value in assay [1] is 53.4%. Further, the “Phosphorylation of TrkB and downstream ERK and Akt” value on TrkB is “significantly inhibited”.
